The nature of series [1]: Biodistribution in healthy and SRC bearing rats at 1 h after i.v. injection of radiolabelled compounds. The class given is in vivo. Conditions: mean ± SD (n = 3); for Tumor: SRC (Swarm Rat Chondrosarcoma) bearing rats; for Articular Cartilage / Bladder / Blood / Kidney / Muscle / Liver: healthy and SRC bearing rats; for Liver: ND: at undetectable levels. The protocol:
Quantitative biodistribution of radiolabelled compounds was determined in rats: healthy animals as well as rats with primary grade II orthotopic chondrosarcoma at stage Day-30 after induction. The chondrosarcoma model was the Swarm Rat Chondrosarcoma model (SRC) implanted in paratibial location. Radiolabelled compounds (5-10 Mbq/animal) were i.v. administered in the caudal vein of animals being anesthetized of mixture of ketamine (58 mg/kg i.p.) (Imalgéne 500®) and xylazine (6 mg/kg i.p.) (Rompun® 2%, Bayer, France). One hour after injection, animals were then sacrificed by CO2 inhalation, dissected and organs of interest removed, weighed and their radioactivity counted using a gamma counter (Model 1480 Wizard, Perkin Elmer Life Sciences, Boston, USA). Organs collected were blood, muscle, knee, kidneys, liver, thoracic ribs, bladder for both healthy and chondrosarcoma bearing rats. For SRC animals, tumour was also sampled. After radioactive decay correction, results were expressed for each organ as % injected dose per gram (% ID/g) and averaged per group.

A short description of series [2]: Study 2: biodistribution in healthy New Zealand rabbits (gamma counting of dissected organs). The class given is in vivo. The following applies: for Uptake ratio Cartilage/Bone / Uptake ratio Cartilage/Muscle / Articular Cartilage / Bile / Blood / Bone / Bone Marrow / Kidney / Liver / Lung / Muscle / Spleen / Thyroid / Urine: i.v. Here is the method: Biodistribution were determined in 36 healthy New Zealand rabbits (18 males and 18 females, 14 weeks old, 3.5 kg weight, Charles River, France), being randomly divided into two groups: • One group receiving ^99mTc-NTP 15-5: 18±3 MBq/animal for biodistribution; • One group receiving ^64Cu-2: 17±4 MBq/animal for biodistribution.
The compounds were i.v. administered to anesthetized animals (ketamine/xylazine by intramuscular route) in the marginal ear vein.
At selected time points after injection (15 min, 1 h, 3 h, 6 h, 20 h after injection), animals (3 animals/time point/compound) were sacrificed by a lethal i.v. dose of pentobarbital. Organs of interest were dissected, weighed and their radioactivity measured using a gamma counter (Model 1480 Wizard, Perkin Elmer Life Sciences, Boston, USA). After radioactive decay correction, results were expressed for each organ as % injected dose per gram (% ID/g) and averaged per group and per time point.

“Also recorded” adds a separate entry of the source.

In series [1], `CC[N+](CC)(CC)CCCN1CCNCCNCCNCCNCC1.[64Cu+2]` [^64Cu-2, [^64Cu]—N,N,N-Triethyl-3-(1,4,7,10,13-pentaazacyclopentadecan-1-yl)propan-1-aminium copper(II)] displayed a Tumor of 3.5 ± 0.5 % ID/g, an Articular Cartilage of 2.6 ± 1.1 % ID/g, a Bladder of 62.2 ± 17.6 % ID/g and a Blood of 0.1 ± 0.05 % ID/g. Further, in series [1], the Kidney was 16.4 ± 6.6 % ID/g and the Muscle is 0.4 ± 0.3 % ID/g. Further, in series [2], the “Accumulation in kidneys compared to ^99mTc-NTP 15-5” value is on record as “significantly higher”; the “Cartilage/muscle and cartilage/Bone ratios compared to ^99mTc-NTP 15-5” value is listed as “higher”; the “Duration of liver accumulation compared to ^99mTc-NTP 15-5” value was “shorter”. Further, the “Accumulation in cartilage (onset)” value in series [2] (as early as 15 min p.i.) is recorded as “rapidly accumulate”. In series [2] (each time investigated), the “Uptake into the cartilages compared to ^99mTc-NTP 15-5” value was “faster and higher uptake; also recorded: higher levels”. In series [2] (15 min), the “Uptake ratio Cartilage/Bone” value is reported as 120 and the “Uptake ratio Cartilage/Muscle” value is reported as 282. In series [2] (15 min after injection), the “Articular Cartilage” value was determined as 8.46 ± 6.18 % ID/g, the Bile is 0.07 ± 0.04 % ID/g, the Blood is 0.31 ± 0.17 % ID/g and the Bone amounted to 0.07 ± 0.02 % ID/g. In series [2] (15 min after injection), the “Bone Marrow” value amounted to 0.08 ± 0.04 % ID/g, the Kidney was determined as 0.65 ± 0.47 % ID/g, the Liver worked out at 0.11 ± 0.03 % ID/g and the Lung amounted to 0.23 ± 0.14 % ID/g. Besides, in series [2] (15 min after injection), the Muscle turned out to be 0.03 ± 0.02 % ID/g, the Spleen was determined as 0.11 ± 0.08 % ID/g, the Thyroid is listed as 0.11 ± 0.08 % ID/g and the Urine stood at 1.51 ± 2.22 % ID/g. Also, in series [2] (1 h), the “Uptake ratio Cartilage/Bone” value is recorded as 484 and the “Uptake ratio Cartilage/Muscle” value amounted to 484. Moreover, in series [2] (1 h after injection), the “Articular Cartilage” value turned out to be 4.81 ± 1.16 % ID/g, the Bile came out at 0.03 ± 0.02 % ID/g, the Blood stood at 0.08 ± 0.02 % ID/g and the Bone was found to be 0.01 ± 0.00 % ID/g. In series [2] (1 h after injection), the “Bone Marrow” value is 0.03 ± 0.01 % ID/g, the Kidney was 0.26 ± 0.07 % ID/g, the Liver is 0.04 ± 0.01 % ID/g and the Lung came out at 0.07 ± 0.02 % ID/g. For the same compound, in series [2] (1 h after injection), the Muscle was determined as 0.01 ± 0.00 % ID/g, the Spleen stood at 0.03 ± 0.01 % ID/g, the Thyroid was 0.03 ± 0.01 % ID/g and the Urine stood at 1.69 ± 2.14 % ID/g. In series [2] (3 h after injection), the “Articular Cartilage” value is recorded as 2.31 ± 0.32 % ID/g, the Bile is 0.11 ± 0.17 % ID/g, the Blood was 0.02 ± 0.00 % ID/g and the Bone is 0.01 ± 0.00 % ID/g. In series [2] (3 h after injection), the “Bone Marrow” value worked out at 0.01 ± 0.00 % ID/g, the Kidney was found to be 0.22 ± 0.01 % ID/g, the Liver turned out to be 0.02 ± 0.00 % ID/g and the Lung stood at 0.03 ± 0.00 % ID/g. Also, in series [2] (3 h after injection), the Muscle is 0.00 ± 0.00 % ID/g, the Spleen worked out at 0.02 ± 0.00 % ID/g, the Thyroid was 0.04 ± 0.05 % ID/g and the Urine is 0.92 ± 0.63 % ID/g. Also, in series [2] (6 h after injection), the “Articular Cartilage” value is recorded as 1.00 ± 1.02 % ID/g, the Bile is on record as 0.02 ± 0.02 % ID/g, the Blood stood at 0.02 ± 0.02 % ID/g and the Bone is 0.00 ± 0.00 % ID/g. Moreover, in series [2] (6 h after injection), the “Bone Marrow” value amounted to 0.01 ± 0.01 % ID/g, the Kidney is listed as 0.26 ± 0.14 % ID/g, the Liver amounted to 0.02 ± 0.02 % ID/g and the Lung is reported as 0.02 ± 0.02 % ID/g. In addition, in series [2] (6 h after injection), the Muscle is recorded as 0.00 ± 0.00 % ID/g, the Spleen is 0.02 ± 0.02 % ID/g, the Thyroid stood at 0.00 ± 0.00 % ID/g and the Urine is 6.90 ± 7.93 % ID/g. For the same compound, in series [2] (20 h after injection), the “Articular Cartilage” value is reported as 0.10 ± 0.02 % ID/g, the Bile amounted to 0.01 ± 0.00 % ID/g, the Blood came to 0.00 ± 0.00 % ID/g and the Bone stood at 0.00 ± 0.00 % ID/g. For the same compound, in series [2] (20 h after injection), the “Bone Marrow” value was determined as 0.00 ± 0.00 % ID/g, the Kidney is given as 0.06 ± 0.01 % ID/g, the Liver is given as 0.00 ± 0.00 % ID/g and the Lung was 0.00 ± 0.00 % ID/g. In series [2] (20 h after injection), the Muscle is listed as 0.00 ± 0.00 % ID/g, the Spleen was found to be 0.01 ± 0.00 % ID/g, the Thyroid is 0.00 ± 0.00 % ID/g and the Urine is given as 0.25 ± 0.22 % ID/g. In addition, in series [2] (indicated by accumulation in kidneys), the Urinary elimination result is listed as “high/rapid”. Further, the “In vivo stability (release of ^64Cu from transchelation or transmetalation negligible)” value in series [2] (inferred from liver uptake) is “stable”.
Turning to `CC[N+](CC)(CC)CCCN1CCCN2CCN(CCCN(CC(=O)OC(C)(C)C)CC1)CC2.[64Cu+2]` [^64Cu-13, [^64Cu]-3-(8-(2-tert-Butoxy-2-oxoethyl)-1,5,8,12-tetraazabicyclo[10.2.2]hexadecan-5-yl)-N,N,N-triethylpropan-1-aminium copper(II)], in series [1], the Articular Cartilage stood at 0.16 ± 0.06 % ID/g, the Bladder is on record as 11.83 % ID/g, the Blood was found to be 0.07 ± 0.01 % ID/g and the Kidney is reported as 1.06 ± 0.66 % ID/g. For the same compound, in series [1], the Muscle was determined as 0.03 ± 0.01 % ID/g and the Liver came to 0.06 ± 0.01 % ID/g.
With `CC[N+](CC)(CC)CCCN1CCCN2CCN(CCCN(CC(=O)O)CC1)CC2.[64Cu+2]` [^64Cu-14, [^64Cu]-3-(8-(Carboxymethyl)-1,5,8,12-tetraazabicyclo[10.2.2]hexadecan-5-yl)-N,N,N-triethylpropan-1-aminium copper(II)], in series [1], the Articular Cartilage amounted to 0.11 ± 0.02 % ID/g, the Bladder came out at 14.71 % ID/g, the Blood stood at 0.09 ± 0.04 % ID/g and the Kidney turned out to be 0.73 ± 0.22 % ID/g. In series [1], this compound came in with a Muscle of 0.04 ± 0.00 % ID/g and a Liver of 0.06 ± 0.02 % ID/g.
As for `CC[N+](CC)(CC)CCCN1CCCNCCN(Cc2ccccn2)CCCNCC1.[64Cu+2]` [^64Cu-27, [^64Cu]—N,N,N-Triethyl-3-(8-(pyridin-2-ylmethyl)-1,4,8,11-tetraazacyclotetradecan-1-yl)propan-1-aminium copper(II)], in series [1], the Tumor is listed as 1.4 ± 0.07 % ID/g, the Articular Cartilage worked out at 1.5 ± 0.4 % ID/g, the Bladder is listed as 30.5 ± 10.9 % ID/g and the Blood stood at 0.4 ± 0.07 % ID/g. In series [1], the Kidney is given as 7.6 ± 4.6 % ID/g, the Muscle is 0.43 ± 0.15 % ID/g and the Liver was 1.2 ± 0.4 % ID/g.
In series [1], `CC[N+](CC)(CC)CCCN1CCCN(Cc2ccccn2)CCNCCCN(Cc2ccccn2)CC1.[64Cu+2]` [^64Cu-30, [^64Cu]-3-(4,11-Bis(pyridin-2-ylmethyl)-1,4,8,11-tetraazacyclotetradecan-1-yl)-N,N,N-triethylpropan-1-aminium copper(II)] displayed a Tumor of 4.2 ± 0.6 % ID/g, an Articular Cartilage of 2.7 ± 0.4 % ID/g, a Bladder of 25.2 ± 10.6 % ID/g and a Blood of 0.7 ± 0.2 % ID/g. In addition, in series [1], the Kidney was determined as 9.2 ± 0.9 % ID/g and the Muscle worked out at 0.80 ± 0.4 % ID/g.

For the origin of these results see US10351539B2, “Macrocyclic complexes, their process of preparation and use as PET imaging agents” (INSTITUT NATIONAL DE LA SANTE ET DE LA RECHERCHE MEDICALE …, priority 2014, dated 2019).
